The source of these data is patent US5405857A, “3-substituted 1,2,3,4,-oxatriazole-5-imine compounds, a process for the preparation thereof and a pharmaceutical preparation containing said compounds” (A/S GEA Farmaceutisk Fabrik, priority 1991, dated 1995).

Assay [1] concerns the target T1, soluble guanylate cyclase (Homo sapiens, UniProt Q02153).
T1 construct: The guanylate cyclase activity in the supernatant after incubation with and without the test substance; endogenous in cells; host or cells: human blood platelets, supernatant of homogenate
T1 sequence (Q02153 1-619): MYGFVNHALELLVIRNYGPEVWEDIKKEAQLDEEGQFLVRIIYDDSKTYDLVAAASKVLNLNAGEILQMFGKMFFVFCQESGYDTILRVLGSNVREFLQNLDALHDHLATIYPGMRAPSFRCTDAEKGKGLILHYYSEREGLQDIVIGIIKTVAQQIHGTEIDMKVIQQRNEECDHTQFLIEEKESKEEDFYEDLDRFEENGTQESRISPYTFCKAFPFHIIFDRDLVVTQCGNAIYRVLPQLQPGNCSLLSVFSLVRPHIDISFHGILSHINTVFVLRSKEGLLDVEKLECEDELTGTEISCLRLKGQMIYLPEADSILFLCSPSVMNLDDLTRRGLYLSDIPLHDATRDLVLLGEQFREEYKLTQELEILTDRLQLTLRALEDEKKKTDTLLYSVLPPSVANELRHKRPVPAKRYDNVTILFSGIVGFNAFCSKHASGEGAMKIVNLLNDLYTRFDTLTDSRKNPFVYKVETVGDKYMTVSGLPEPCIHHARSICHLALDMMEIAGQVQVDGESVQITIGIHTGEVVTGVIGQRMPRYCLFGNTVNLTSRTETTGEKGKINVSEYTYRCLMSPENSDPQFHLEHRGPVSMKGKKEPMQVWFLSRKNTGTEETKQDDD
T1 sequence (Q02108 1-690 partner): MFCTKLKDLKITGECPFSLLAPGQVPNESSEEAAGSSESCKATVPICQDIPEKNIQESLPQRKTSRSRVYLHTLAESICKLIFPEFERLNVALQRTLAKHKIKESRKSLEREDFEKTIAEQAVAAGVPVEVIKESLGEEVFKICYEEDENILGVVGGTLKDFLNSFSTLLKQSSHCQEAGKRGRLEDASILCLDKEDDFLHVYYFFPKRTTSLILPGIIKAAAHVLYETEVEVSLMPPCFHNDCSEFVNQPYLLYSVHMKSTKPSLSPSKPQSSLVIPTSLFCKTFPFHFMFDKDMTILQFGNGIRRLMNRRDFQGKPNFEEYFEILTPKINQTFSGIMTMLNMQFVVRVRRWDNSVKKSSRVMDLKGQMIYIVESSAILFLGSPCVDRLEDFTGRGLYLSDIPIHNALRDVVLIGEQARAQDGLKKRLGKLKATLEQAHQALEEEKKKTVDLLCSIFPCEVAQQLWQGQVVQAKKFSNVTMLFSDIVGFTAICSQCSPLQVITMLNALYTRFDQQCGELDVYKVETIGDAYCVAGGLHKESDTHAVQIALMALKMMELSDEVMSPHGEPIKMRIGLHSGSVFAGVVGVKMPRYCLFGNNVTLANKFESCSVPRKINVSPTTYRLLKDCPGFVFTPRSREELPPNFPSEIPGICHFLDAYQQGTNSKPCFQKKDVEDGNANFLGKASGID
As to the kind of experiment: Stimulation of guanylate cyclase from blood platelets (RIA). The note with it: 37° C. Type of assay: biochemical.

The test system of assay [2] is blood platelets. As to the kind of experiment: Inhibition of blood platelet aggregation (aggregometer, ADP). Type of assay: cell-based, human (healthy testees). As to conditions: Platelet, 0.05 h; human PRP, ADP 2 to 4 μM, 3 min incubation, 37° C.; read-out: IC50 (Inhibition of blood platelet aggregation). Summed up: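 Citrated human PRP (0.38% sodium citrate final; donors drug-free ≥8 days) preincubated 3 min with test substance at 37 °C under stirring, then ADP 2 to 4 μM added; aggregation followed by light transmission against PPP. IC50 from linear regression of % inhibition vs log concentration.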

For assay [3], the system named is polymorph nuclear leukocytes (PMNs), c-GMP. As to the kind of experiment: Stimulation of c-GMP content in PMNs. It is filed as cell-based, human. As to conditions: 37° C., 10 minutes. Summed up: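 Isolated human PMNs incubated with compound for 10 min at 37 °C, then cellular c-GMP content measured.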

As to `COc1ccc(Cl)cc1-[n+]1noc([NH-])n1` [Example 20], the Guanylate cyclase activity is reported as 2225 pmole c-GMP/mg prot. × 15 minutes in assay [1] (0.01 μM) and 47298 pmole c-GMP/mg prot. × 15 minutes in assay [1] (10 μm (so in the source)). Moreover, the IC50 (as a rule, the concentration at which inhibition is half-maximal) in assay [2] is 180 nM. Moreover, the “c-GMP in PMNs” value is listed as 175 fmole/10^6 cells in assay [3] (1 μM), 492 fmole/10^6 cells in assay [3] (10 μM) and 866 fmole/10^6 cells in assay [3] (100 μM).
